Experiments:
[1] = biological target: T1, Calf uterine cytosolic estrogen receptor (Bos taurus, UniProt P49884); experiment: Estrogen Receptor assay, competition with 6,7-3H2-estradiol; format: binding
T1 construct: Calf uterine cytosolic estrogen receptor; from tissue; host or cells: calf uterus, cytosol
T1 sequence (P49884 1-596): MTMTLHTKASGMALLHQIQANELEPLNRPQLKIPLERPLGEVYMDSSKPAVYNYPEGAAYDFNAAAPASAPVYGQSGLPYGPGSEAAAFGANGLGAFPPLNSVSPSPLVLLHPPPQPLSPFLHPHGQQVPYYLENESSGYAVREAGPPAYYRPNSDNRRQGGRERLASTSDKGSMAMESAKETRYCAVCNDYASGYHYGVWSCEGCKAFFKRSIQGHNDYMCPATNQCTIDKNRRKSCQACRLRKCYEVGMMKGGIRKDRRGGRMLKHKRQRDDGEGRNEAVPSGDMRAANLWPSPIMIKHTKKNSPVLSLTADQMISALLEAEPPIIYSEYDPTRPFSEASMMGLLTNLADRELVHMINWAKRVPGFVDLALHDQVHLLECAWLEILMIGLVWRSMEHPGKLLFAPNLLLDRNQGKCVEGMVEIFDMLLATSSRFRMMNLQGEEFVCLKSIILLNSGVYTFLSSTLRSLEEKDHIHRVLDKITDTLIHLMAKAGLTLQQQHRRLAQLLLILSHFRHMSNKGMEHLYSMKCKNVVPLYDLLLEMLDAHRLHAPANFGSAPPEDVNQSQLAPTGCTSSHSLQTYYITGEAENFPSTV

[2] = system: infantile female white swiss mouse; experiment: Uterotropic Assay compared to estrone as standard; format: in vivo
[3] = as described for the prior art; cited from earlier work
estrogen receptors = conditions: as described for the prior art; cited from earlier work

(17β)-17-(1,2-dicarbadodecaboran(12)-1-yl)estra-1,3,5(10)-triene-3,17-diol 17-acetate [III]
estrophilic activity relative to estradiol-17β 3-carboranylmethyl ether ([1]; compared with value reported in Steroids 37, 223 (1981)): about two
50% inhibition to binding ([1]; competition with 6,7-3H2-estradiol): 1 Mole equivalent
uterotropic activity relative to estrone ([2]; 3×3 assay, 5-6 animals per dose, estrone as standard): about 80%
response compared to estrone (uterotropic) ([2]; 4×4 assay, 9-10 animals per dose, estrone as standard): 63%
uterotopic response of estrone ([2]; summary statement, relative to estrone): at least 63%

estradiol-17β 3-carboranylmethyl ether
uterotopic activity [3]: very low
estrophilic activity (estrogen receptors): very low

— patent US4466952A, “Compositions and process for the treatment of cancer” (Indiana University Foundation, priority 1983, dated 1984)
